# Reference: PMC12275099, “VX-445 (elexacaftor) inhibits chloride secretion across human bronchial epithelial cells by directly blocking KCa3.1 channels” (PNAS Nexus, 2025)
# Like-named read-outs stand apart in the source and are kept apart here.
# Target: T1, KCa3.1 (Homo sapiens, UniProt O15554)
# T1 construct: expressed in transfected cells
# Assay: Whole-cell patch-clamp on HEK cells heterologously expressing KCa3.1
# Type: cell-based
# Details: HEK293, VX-445 10 µM
# Experimental: Our Isc results are consistent with VX-445 inhibiting KCa3.1 in HBEs. To directly assess this possibility, we initially carried out whole-cell patch-clamp studies on undifferentiated HBEs. […] Upon application of 10 µM VX-445, a majority of this current was inhibited, averaging 87 ± 4% (n = 3, P < 0.005; Fig. 3B). A summary of the current–voltage (I–V) relationship—normalized to cell capacitance—is shown in Fig. 3C, which also includes the whole-cell I–V in the presence of Tram-34. […] To ensure isolation of KCa3.1 currents and to more fully characterize this VX-445-dependent inhibition of KCa3.1, we utilized HEK cells heterologously expressing KCa3.1 (HEK-KCa3.1). Initially, we confirmed our results from HBEs, using whole-cell recordings, as above. […] In seven experiments, this inhibition averaged 58 ± 7% (P < 0.005). […] It is well recognized that drugs are carried to their targets in the blood bound to albumin, which ranges from 3.4 to 5.4%. Thus, we determined whether VX-445 (10 µM) would inhibit KCa3.1 expressed in HEK cells in the presence of 3.4% albumin. In four experiments, VX-445 inhibited an average of 51 ± 17% of the whole-cell KCa3.1 current, which is not different from that observed in the absence of albumin. To confirm the direct effect of VX-445 on KCa3.1, we utilized the excised, inside-out patch-clamp technique. The patch was then exposed to DCEBIO (100 µM) to further activate the channels ([34–37])—analogous to our Isc studies in HBEs. […] In three experiments, VX-445 inhibited an average of 63 ± 6% of the KCa3.1 current. Based on these experiments, we determined the apparent inhibitory constant, Ki for VX-445. For these experiments, patches were excised into saturating Ca^2+ (3 µM) to ensure maximal KCa3.1 activation. These studies were carried out in the absence of DCEBIO to eliminate the possibility that the inhibition observed was due to competition for the DCEBIO-binding site.
# HEK cells stably expressing KCa3.1 (IK1, SK4), KCa2.3 (SK3), and KCa2.2 (SK2) were generated and cultured as previously described by us ([37], [66–71]).
# HEK cells expressing the channel of interest were plated onto poly-L-lysine-coated glass coverslips 1–2 days prior to patch-clamp analysis. Electrophysiological recordings in the excised, inside-out, and whole-cell patch-clamp configurations were performed as recently described ([14]). For excised patch-clamp recordings, the pipette solution contained (in mM): 140 K-gluconate, 5 KCl, 1 CaCl2, 1 MgCl2, and 10 HEPES. The pH was adjusted to 7.2 with KOH. The bath solution contained (in mM): 145 K-gluconate, 5 KCl, 1.3 MgCl2, 10 HEPES, and 1 EGTA. Sufficient CaCl2 was added to obtain the desired free Ca^2+ concentration at a pH of 7.2 (adjusted with KOH). When recording KCa3.1 channels, ATP (300 µM) was added to the bath to diminish channel rundown ([73]). All recordings were carried out at a voltage of −100 mV, referenced to the extracellular compartment, as is standard. The apparent Ki and Hill coefficient for each CFTR corrector on KCa3.1, KCa2.3, and KCa2.2 were determined during a continuous recording by step-wise addition of increasing concentrations of compound and fitting the resultant relative remaining current to a Hill equation (Prism v. 10.1.0). The zero current level was determined by the addition of a 0 Ca^2+ solution (zero-added Ca^2+ plus 1 mM EGTA) at the end of the experiment. In the case of KCa3.1, TRAM-34, a known inhibitor of KCa3.1 ([45]), was used to confirm expression of the channel. For whole-cell experiments, pipettes contained (in mM): 145 K-gluconate, 10 EGTA, 7.5 CaCl2, 2 MgCl2, 3 mM NaATP, and 10 HEPES. The bath solution contained (in mM): 140 K-gluconate, 5 KCl, 1.0 MgCl2, 10 HEPES, and 2 CaCl2. Current–voltage relationships were determined by stepping from a holding potential of −80 mV to +80 mV in 20 mV increments for 400 ms. […]
smiles,measurement,setting,value
"Cc1nn(C)cc1S(=O)(=O)NC(=O)c1ccc(-n2ccc(OCC(C)(C)C(F)(F)F)n2)nc1N1C[C@@H](C)CC1(C)C [VX-445, elexacaftor]",inhibition at 10 µM,"four experiments, read-out: inhibition of whole-cell KCa3.1 current in the presence of 3.4% albumin",51 ± 17%
same,inhibition at 10 µM,"seven experiments, read-out: inhibition of whole-cell KCa3.1 current",58 ± 7%
